Data published in US7182954B1, “Prebiotic oligosaccharides via alternansucrase acceptor reactions” (priority 2003, dated 2007).

system: alternansucrase; experiment: Comparison of acceptor strengths with alternansucrase, relative amount of alternan formed; details: 45 μL 10% (w/v) sucrose, 45 μL 10% (w/v) acceptor, 10 μL alternansucrase, pH 5.4, room temperature; less alternan = stronger acceptor

SMILES | Alternan (Rel. %)
OC[C@H]1O[C@@H](O[C@@H]2[C@@H](CO)OC(O)(CO)[C@H]2O)[C@H](O)[C@@H](O)[C@H]1O (mixture of isomers) [lactulose] | 91 Rel. %
O=CC[C@@H](O)[C@@H](O)[C@H](O)CO [2-deoxy-D-galactose] | 89 Rel. %
O=CC[C@@H](O)[C@H](O)[C@H](O)CO [2-deoxy-D-glucose] | 59 Rel. %
O=CC[C@H](O)[C@H](O)CO [2-deoxy-D-ribose] | 81 Rel. %
O=C[C@H](O)[C@@H](O[C@H]1O[C@H](CO)[C@@H](O)[C@H](O)[C@H]1O)[C@H](O)[C@H](O)CO[C@H]1O[C@H](CO)[C@@H](O)[C@H](O)[C@H]1O [3′-O-α-D-Glc isomaltose, 3-O-α-D-glucopyranosyl-6-O-α-D-glucopyranosyl-D-glucose] | 31 Rel. %
OC[C@H]1O[C@H](OC[C@H]2O[C@H](O[C@H]3O[C@H](CO[C@H]4O[C@H](CO)[C@@H](O)[C@H](O)[C@H]4O)[C@@H](O)[C@H](O)[C@H]3O)[C@H](O)[C@@H](O)[C@@H]2O)[C@H](O)[C@@H](O)[C@@H]1O [6,6′-di-O-α-D-Glc-trehalose, 6,6′-di-O-α-D-glucopyranosyl-α,α-trehalose] | 54 Rel. %
OC[C@H]1O[C@H](OC[C@H]2O[C@H](O[C@H]3O[C@H](CO)[C@@H](O)[C@H](O)[C@H]3O)[C@H](O)[C@@H](O)[C@@H]2O)[C@H](O)[C@@H](O)[C@@H]1O [6-O-α-D-Glc-trehalose, 6-O-α-D-glucopyranosyl-α,α-trehalose] | 56 Rel. %
OC[C@H]1O[C@H](OC[C@H]2O[C@H](OC[C@H]3O[C@H](O[C@H]4[C@H](O)[C@@H](O)C(O)O[C@@H]4CO)[C@H](O)[C@@H](O)[C@@H]3O)[C@H](O)[C@@H](O)[C@@H]2O)[C@H](O)[C@@H](O)[C@@H]1O (stereo partly drawn) [6″-O-α-D-Glc panose] | 36 Rel. %
O=C[C@H](O)[C@H](O)[C@H](O)[C@H](O)CO [D-allose] | 75 Rel. %
O=C[C@@H](O)[C@H](O)[C@H](O)[C@H](O)CO [D-altrose] | 92 Rel. %
O=C[C@@H](O)[C@H](O)[C@H](O)CO [D-arabinose] | 99 Rel. %
O=C(CO)[C@@H](O)[C@H](O)[C@H](O)CO [D-fructose] | 78 Rel. %
O=C[C@H](O)[C@@H](O)[C@@H](O)[C@H](O)CO [D-galactose] | 83 Rel. %
O=C[C@@H](O)[C@@H](O)[C@H](O)CO [D-lyxose] | 99 Rel. %
O=C[C@@H](O)[C@@H](O)[C@H](O)[C@H](O)CO [D-mannose] | 90 Rel. %
O=C(CO)[C@H](O)[C@H](O)[C@H](O)CO [D-psicose] | 85 Rel. %
C[C@@H](O)[C@@H](O)[C@H](O)[C@@H](O)C=O [D-quinovose] | 61 Rel. %
O=C[C@H](O)[C@H](O)[C@H](O)CO [D-ribose] | 93 Rel. %
O=C(CO)[C@H](O)[C@@H](O)[C@H](O)CO [D-sorbose] | 97 Rel. %

SMILES | Alternan (Rel. %)
O=C(CO)[C@@H](O)[C@@H](O)[C@H](O)CO [D-tagatose] | 65 Rel. %
O=C[C@@H](O)[C@@H](O)[C@@H](O)[C@H](O)CO [D-talose] | 77 Rel. %
O=C[C@H](O)[C@@H](O)[C@H](O)CO [D-xylose] | 86 Rel. %
O=C[C@H](O)[C@@H](O)[C@@H](O)CO [L-arabinose] | 75 Rel. %
C[C@H](O)[C@@H](O)[C@@H](O)[C@H](O)C=O [L-fucose] | 94 Rel. %
O=C[C@@H](O)[C@H](O)[C@@H](O)[C@@H](O)CO [L-glucose] | 63 Rel. %
O=C[C@H](O)[C@H](O)[C@@H](O)CO [L-lyxose] | 92 Rel. %
C[C@H](O)[C@H](O)[C@@H](O)[C@@H](O)C=O [L-rhamnose] | 96 Rel. %
O=C(CO)[C@@H](O)[C@H](O)[C@@H](O)CO [L-sorbose] | 88 Rel. %
CC(=O)N[C@H]1C(O)O[C@H](CO)[C@H](O)[C@@H]1O (stereo partly drawn) [N-acetyl-D-galactosamine] | 88 Rel. %
CC(=O)N[C@H]1C(O)O[C@H](CO)[C@@H](O)[C@@H]1O (stereo partly drawn) [N-acetyl-D-glucosamine] | 90 Rel. %
CC(=O)N[C@@H]1C(O)O[C@H](CO)[C@@H](O)[C@@H]1O (stereo partly drawn) [N-acetyl-D-mannosamine] | 93 Rel. %
O=C[C@H](O)[C@@H](O)[C@H](O[C@@H]1O[C@H](CO)[C@@H](O)[C@H](O)[C@H]1O)[C@H](O)CO [cellobiose] | 72 Rel. %
OC[C@H]1O[C@@H]2OC[C@H]3O[C@H](O[C@@H]4[C@@H](O)[C@@H](OC[C@H]5O[C@H](O[C@H]([C@H]2O)[C@@H]1O)[C@H](O)[C@@H](O)[C@@H]5O)O[C@H](CO)[C@H]4O)[C@H](O)[C@@H](O)[C@@H]3O [cycloGlc4 (cyclo-alternan), cycloalternan] | 90 Rel. %
OC[C@@H](O)[C@H](O)[C@H](O)[C@@H](O)CO [dulcitol] | 101 Rel. %
O=C[C@@H](O)[C@H](O[C@@H]1O[C@H](CO)[C@H](O)[C@H](O)[C@H]1O)[C@H](O)CO [galactosyl-arabinose, 3-O-β-D-galactopyranosyl-D-arabinose] | 90 Rel. %
OC[C@H]1O[C@@](CO)(O[C@H]2O[C@H](CO[C@@H]3O[C@H](CO)[C@@H](O)[C@H](O)[C@H]3O)[C@@H](O)[C@H](O)[C@H]2O)[C@@H](O)[C@@H]1O [gentianose] | 66 Rel. %
OC[C@H]1O[C@H](OC[C@H]2OC(O)[C@H](O)[C@@H](O)[C@@H]2O)[C@H](O)[C@@H](O)[C@@H]1O (stereo partly shown) [isomaltose] | 44 Rel. %
OC[C@H]1O[C@H](OC[C@H]2O[C@H](OC[C@H]3OC(O)[C@H](O)[C@@H](O)[C@@H]3O)[C@H](O)[C@@H](O)[C@@H]2O)[C@H](O)[C@@H](O)[C@@H]1O (stereo partly shown) [isomaltotriose] | 50 Rel. %

SMILES | Alternan (Rel. %)
OC[C@H]1O[C@H](O[C@H]2C(O)O[C@H](CO)[C@@H](O)[C@@H]2O)[C@H](O)[C@@H](O)[C@@H]1O (stereo partly shown) [kojibiose] | 27 Rel. %
OC[C@H]1O[C@H](O[C@H]2[C@@H](O[C@H]3C(O)O[C@H](CO)[C@@H](O)[C@@H]3O)O[C@H](CO)[C@@H](O)[C@@H]2O)[C@H](O)[C@@H](O)[C@@H]1O (stereo partly shown) [kojitriose] | 86 Rel. %
OC[C@H]1O[C@@H](O[C@H]2[C@H](O)[C@@H](O)C(O)O[C@@H]2CO)[C@H](O)[C@@H](O)[C@H]1O (stereo partly shown) [lactose] | 79 Rel. %
OC[C@H]1O[C@@H](O[C@H]2[C@H](O)[C@@H](CO)OC(O)[C@@H]2O)[C@H](O)[C@@H](O)[C@@H]1O (stereo partly shown) [laminaribiose] | 58 Rel. %
OC[C@H]1O[C@H](O[C@@H]2COC(O)(CO)[C@@H](O)[C@@H]2O)[C@H](O)[C@@H](O)[C@@H]1O (stereo partly shown) [leucrose] | 81 Rel. %
OC[C@@H](O)[C@@H](O[C@H]1O[C@H](CO)[C@@H](O)[C@H](O)[C@H]1O)[C@H](O)[C@@H](O)CO [maltitol] | 18 Rel. %
OC[C@H]1O[C@H](O[C@H]2[C@H](O)[C@@H](O)[C@H](O)O[C@@H]2CO)[C@H](O)[C@@H](O)[C@@H]1O [maltose] | 11 Rel. %
OC[C@@H](O)[C@@H](O)[C@H](O)[C@H](O)CO [mannitol] | 100 Rel. %
OC[C@H]1O[C@@](CO)(O[C@H]2O[C@H](CO)[C@@H](O)[C@H](O)[C@H]2O)[C@@H](O[C@H]2O[C@H](CO)[C@@H](O)[C@H](O)[C@H]2O)[C@@H]1O [melezitose] | 90 Rel. %
OC[C@H]1O[C@H](OCC2O[C@@H](O)[C@H](O)[C@@H](O)[C@@H]2O)[C@H](O)[C@@H](O)[C@H]1O (stereo partly shown) [melibiose] | 45 Rel. %
O[C@H]1[C@H](O)[C@@H](O)[C@H](O)[C@@H](O)[C@H]1O [myo-inositol] | 99 Rel. %
OC[C@H]1O[C@H](O[C@H]2[C@H](O)[C@@H](CO)OC(O)[C@@H]2O)[C@H](O)[C@@H](O)[C@@H]1O (stereo partly shown) [nigerose] | 23 Rel. %
OC[C@H]1O[C@H](OC[C@H]2OC(O)(CO)[C@@H](O)[C@@H]2O)[C@H](O)[C@@H](O)[C@@H]1O (stereo partly shown) [palatinose] | 69 Rel. %
OC[C@H]1O[C@H](OC[C@H]2O[C@H](O[C@H]3[C@H](O)[C@@H](O)C(O)O[C@@H]3CO)[C@H](O)[C@@H](O)[C@@H]2O)[C@H](O)[C@@H](O)[C@@H]1O (stereo partly shown) [panose] | 25 Rel. %
OC[C@H]1O[C@H](OC[C@H]2O[C@@](CO)(O[C@H]3O[C@H](CO)[C@@H](O)[C@H](O)[C@H]3O)[C@@H](O)[C@@H]2O)[C@H](O)[C@@H](O)[C@H]1O [planteose] | 76 Rel. %
OC[C@H]1O[C@H](OC[C@H]2O[C@H](O[C@]3(CO)O[C@H](CO)[C@@H](O)[C@@H]3O)[C@H](O)[C@@H](O)[C@@H]2O)[C@H](O)[C@@H](O)[C@H]1O [raffinose] | 67 Rel. %
OC[C@H]1O[C@@H](O[C@H]2C(O)O[C@H](CO)[C@@H](O)[C@@H]2O)[C@H](O)[C@@H](O)[C@@H]1O (stereo partly shown) [sophorose] | 80 Rel. %
OC[C@@H](O)[C@@H](O)[C@H](O)[C@@H](O)CO [sorbitol] | 82 Rel. %
OC[C@H]1O[C@H](OC[C@H]2O[C@H](OC[C@H]3O[C@H](O[C@]4(CO)O[C@H](CO)[C@@H](O)[C@@H]4O)[C@H](O)[C@@H](O)[C@@H]3O)[C@H](O)[C@@H](O)[C@H]2O)[C@H](O)[C@@H](O)[C@H]1O [stachyose] | 89 Rel. %

same assay, conditions: acceptor added at the same initial level as other disaccharides

SMILES | reduction in the amount of alternan formed
OC[C@H]1O[C@H](O[C@@H]2COC(O)(CO)[C@@H](O)[C@@H]2O)[C@H](O)[C@@H](O)[C@@H]1O (stereo partly shown) [leucrose] | 19%

same assay, conditions: text summary of Table I

SMILES | acceptor strength for alternansucrase, in words
OC[C@H]1O[C@H](OC[C@H]2O[C@H](O[C@H]3O[C@H](CO[C@H]4O[C@H](CO)[C@@H](O)[C@H](O)[C@H]4O)[C@@H](O)[C@H](O)[C@H]3O)[C@H](O)[C@@H](O)[C@@H]2O)[C@H](O)[C@@H](O)[C@@H]1O [6,6′-di-O-α-D-Glc-trehalose, 6,6′-di-O-α-D-glucopyranosyl-α,α-trehalose] | relatively good acceptors
OC[C@H]1O[C@H](OC[C@H]2O[C@H](O[C@H]3O[C@H](CO)[C@@H](O)[C@H](O)[C@H]3O)[C@H](O)[C@@H](O)[C@@H]2O)[C@H](O)[C@@H](O)[C@@H]1O [6-O-α-D-Glc-trehalose, 6-O-α-D-glucopyranosyl-α,α-trehalose] | relatively good acceptors
OC[C@@H](O)[C@@H](O[C@H]1O[C@H](CO)[C@@H](O)[C@H](O)[C@H]1O)[C@H](O)[C@@H](O)CO [maltitol] | excellent acceptor
OC[C@H]1O[C@H](O[C@H]2[C@H](O)[C@@H](O)[C@H](O)O[C@@H]2CO)[C@H](O)[C@@H](O)[C@@H]1O [maltose] | excellent acceptor
OC[C@H]1O[C@H](OCC2O[C@@H](O)[C@H](O)[C@@H](O)[C@@H]2O)[C@H](O)[C@@H](O)[C@H]1O (stereo partly shown) [melibiose] | relatively good acceptors
OC[C@H]1O[C@H](OC[C@H]2O[C@H](O[C@]3(CO)O[C@H](CO)[C@@H](O)[C@@H]3O)[C@H](O)[C@@H](O)[C@@H]2O)[C@H](O)[C@@H](O)[C@H]1O [raffinose] | relatively good acceptors
